Source: US6482822B1, “N-(iminomethyl)amines derivatives, their preparation, their use as medicines and compositions containing them” (Societe de Conseils de Recherches et d'Applications …, priority 1998, dated 2002)
Structures can show the parent of a compound that is named as a salt.

melting point: > 250 °C
SMILES: NC(=Nc1ccc(CCCC(=O)Nc2ccc3[nH]c4ccccc4c3c2)cc1)c1cccs1 (as salt: hydrochloride) [Example 18, 4-(4-{[Amino(2-thienyl)methylidene]amino}phenyl)-N-(9H-carbazol-3-yl)butanamide Hydrochloride]
